In ChEMBL document CHEMBL1124630, “Fluoronaphthyridines and quinolones as antibacterial agents. 1. Synthesis and structure-activity relationships of new 1-substituted derivatives” (J Med Chem, 1989):
In brackets after ≈: the same amount, converted by molar mass.

What was measured:
Escherichia coli [1] = test: In vivo efficacy in systemic infection due to Escherichia coli (A 15119) in mice; assay type: functional; settings: read-out: PD50
Morganella morganii [2] = test: In vitro antibacterial activity against Morganella morganii (A 15153); assay type: functional
Klebsiella pneumoniae [3] = test: In vitro antibacterial activity against Klebsiella pneumoniae (A 9664); assay type: functional
Pseudomonas aeruginosa [4] = test: In vivo efficacy in systemic infection due to Pseudomonas aeruginosa (A 9843) in mice; assay type: functional; settings: read-out: PD50
Klebsiella pneumoniae [5] = test: In vivo efficacy in systemic infection due to Klebsiella pneumoniae (A 9664) in mice; assay type: functional; settings: read-out: PD50
[6] = Urinary recovery after 24 hr in plasma after oral administration in dog (25 mg/kg); assay type: ADME, organism-based, Canis lupus familiaris; settings: urine, read-out: UR
Pseudomonas aeruginosa [7] = test: In vitro antibacterial activity against Pseudomonas aeruginosa (A 9843); assay type: functional
Staphylococcus aureus [8] = test: In vitro antibacterial activity against Staphylococcus aureus Smith (A9537); assay type: functional
[9] = Maximum concentration in plasma after oral administration in dog (25 mg/kg); assay type: ADME, organism-based, Canis lupus familiaris; design: dose 25 mg/kg, route oral
Canis familiaris = test: Area under the concentration/ time in plasma after oral administration in dog (25 mg/kg); assay type: ADME, organism-based, Canis lupus familiaris; settings: in vivo
Staphylococcus aureus [10] = test: In vivo efficacy in systemic infection due to Staphylococcus aureus Smith (A 9537) in mice; assay type: functional; settings: read-out: PD50
Escherichia coli [11] = test: In vitro antibacterial activity against Escherichia coli (A 15119); assay type: functional
Enterobacter cloacae = test: In vitro antibacterial activity against Enterobacter cloacae (A 9656); assay type: functional
Morganella morganii [12] = test: In vitro antibacterial activity against M. morganii(A 15153); assay type: functional
[13] = Lethal dose of compound in OF1-strain female swiss mice after oral administration; assay type: toxicity, organism-based; settings: mouse, in vivo
[14] = Half-life in plasma after oral administration in dog (25 mg/kg); assay type: ADME, organism-based, Canis lupus familiaris
[15] = Morganella morganii, read-out: MIC
[16] = Klebsiella pneumoniae, read-out: MIC
[17] = Pseudomonas aeruginosa, read-out: MIC
[18] = Staphylococcus aureus, read-out: MIC
[19] = Escherichia coli, read-out: MIC
[20] = Enterobacter cloacae, read-out: MIC

SMILES	MIC (Morganella morganii [2]; [15]) [µg/mL]	MIC (Klebsiella pneumoniae [3]; [16]) [µg/mL]	MIC (Pseudomonas aeruginosa [7]; [17]) [µg/mL]	MIC (Staphylococcus aureus [8]; [18]) [µg/mL]	MIC (Escherichia coli [11]; [19]) [µg/mL]	MIC (Enterobacter cloacae; [20]) [µg/mL]	further results
O=C(O)c1cn(C2CC2)c2cc(N3CCNCC3)c(F)cc2c1=O [CIPROFLOXACIN]	0.015 (≈ 0.0453 µM)	0.03 (≈ 0.0905 µM)	0.13 (≈ 0.392 µM)	0.13 (≈ 0.392 µM)			ED50 (Escherichia coli [1]): 0.7 mg/kg; ED50 (Pseudomonas aeruginosa [4]): 5 mg/kg; ED50 (Klebsiella pneumoniae [5]): 1.5 mg/kg; dose excreted at 24 h [6]: 17%; Cmax [9]: 3000 ng/mL; AUC (Canis familiaris): 20 µg/mL; ED50 (Staphylococcus aureus [10]): 4 mg/kg
CC1(C)CC1n1cc(C(=O)O)c(=O)c2cc(F)c(N3CCNCC3)cc21 (stereo unspecified)	8 (≈ 22.3 µM)	2 (≈ 5.56 µM)	32 (≈ 89 µM)	1 (≈ 2.78 µM)	1 (≈ 2.78 µM)	4 (≈ 11.1 µM)	
O=C(O)c1cn(-c2ccc(F)cc2)c2nc(N3CCNCC3)c(F)cc2c1=O		0.1 (≈ 0.259 µM)	0.39 (≈ 1.01 µM)	0.39 (≈ 1.01 µM)	0.05 (≈ 0.129 µM)		
CC(C)(C)n1cc(C(=O)O)c(=O)c2cc(F)c(N3CCNCC3)nc21		0.13 (≈ 0.373 µM)	1 (≈ 2.87 µM)	0.06 (≈ 0.172 µM)	0.015 (≈ 0.0431 µM)	0.06 (≈ 0.172 µM)	ED50 (Escherichia coli [1]): 2.4 mg/kg; MIC (Morganella morganii [12]): 0.25 µg/mL (≈ 0.718 µM); LD50 [13]: > 2500 mg/kg; half-life [14]: 4.8 h; ED50 (Pseudomonas aeruginosa [4]): 12 mg/kg; ED50 (Klebsiella pneumoniae [5]): 5 mg/kg; dose excreted at 24 h [6]: 12%; Cmax [9]: 5800 ng/mL; AUC (Canis familiaris): 50 µg/mL; ED50 (Staphylococcus aureus [10]): 1.1 mg/kg
CC1CC1n1cc(C(=O)O)c(=O)c2cc(F)c(N3CCNCC3)cc21 (stereo in doubt; 13)		1 (≈ 2.9 µM)	1 (≈ 2.9 µM)				MIC (Escherichia coli [11]): 0.13 µg/mL (≈ 0.376 µM); MIC (Morganella morganii [2]): 0.25 µg/mL (≈ 0.724 µM); MIC (Staphylococcus aureus [8]): 0.13 µg/mL (≈ 0.376 µM); MIC (Enterobacter cloacae): 0.5 µg/mL (≈ 1.45 µM)
O=C(O)c1cn(CC2CC2)c2cc(N3CCNCC3)c(F)cc2c1=O	1 (≈ 2.9 µM)	2 (≈ 5.79 µM)	4 (≈ 11.6 µM)	1 (≈ 2.9 µM)	0.5 (≈ 1.45 µM)	4 (≈ 11.6 µM)	
O=C(O)c1cn(C2CC2)c2nc(N3CCNCC3)c(F)cc2c1=O	0.06 (≈ 0.181 µM)	0.06 (≈ 0.181 µM)	0.06 (≈ 0.181 µM)	0.25 (≈ 0.752 µM)	0.06 (≈ 0.181 µM)	0.06 (≈ 0.181 µM)	ED50 (Escherichia coli [1]): 0.5 mg/kg; ED50 (Pseudomonas aeruginosa [4]): 3.6 mg/kg; ED50 (Klebsiella pneumoniae [5]): 2.2 mg/kg; ED50 (Staphylococcus aureus [10]): 6.7 mg/kg
CCC(C)(C)n1cc(C(=O)O)c(=O)c2cc(F)c(N3CCNCC3)cc21	4 (≈ 11.1 µM)	1 (≈ 2.77 µM)	4 (≈ 11.1 µM)	0.25 (≈ 0.692 µM)	0.5 (≈ 1.38 µM)	1 (≈ 2.77 µM)	
CC(C)n1cc(C(=O)O)c(=O)c2cc(F)c(N3CCNCC3)cc21	0.25 (≈ 0.75 µM)	1 (≈ 3 µM)	1 (≈ 3 µM)	1 (≈ 3 µM)	0.5 (≈ 1.5 µM)	2 (≈ 6 µM)	
O=C(O)c1cn(C2(c3ccccc3)CC2)c2cc(N3CCNCC3)c(F)cc2c1=O	0.25 (≈ 0.614 µM)	0.25 (≈ 0.614 µM)	4 (≈ 9.82 µM)	0.13 (≈ 0.319 µM)	0.13 (≈ 0.319 µM)	0.25 (≈ 0.614 µM)	
O=C(O)c1cn(C2CCC2)c2cc(N3CCNCC3)c(F)cc2c1=O	0.5 (≈ 1.45 µM)	0.13 (≈ 0.376 µM)	1 (≈ 2.9 µM)	0.5 (≈ 1.45 µM)	0.13 (≈ 0.376 µM)	1 (≈ 2.9 µM)	
CC1CC1n1cc(C(=O)O)c(=O)c2cc(F)c(N3CCNCC3)cc21 (stereo in doubt; 12)							MIC (Escherichia coli [11]): 0.06 µg/mL (≈ 0.174 µM); MIC (Morganella morganii [2]): 1 µg/mL (≈ 2.9 µM); MIC (Klebsiella pneumoniae [3]): 2 µg/mL (≈ 5.79 µM); MIC (Pseudomonas aeruginosa [7]): 2 µg/mL (≈ 5.79 µM); MIC (Staphylococcus aureus [8]): 1 µg/mL (≈ 2.9 µM); MIC (Enterobacter cloacae): 0.13 µg/mL (≈ 0.376 µM)
CC(C)(C)n1cc(C(=O)O)c(=O)c2cc(F)c(N3CCNCC3)c(F)c21	0.5 (≈ 1.37 µM)	0.25 (≈ 0.684 µM)	4 (≈ 10.9 µM)	0.25 (≈ 0.684 µM)	0.06 (≈ 0.164 µM)	0.25 (≈ 0.684 µM)	
O=C(O)c1cn(C2CC=CC2)c2cc(N3CCNCC3)c(F)cc2c1=O	8 (≈ 22.4 µM)	1 (≈ 2.8 µM)	8 (≈ 22.4 µM)	2 (≈ 5.6 µM)	1 (≈ 2.8 µM)	8 (≈ 22.4 µM)	
CCn1cc(C(=O)O)c(=O)c2cc(F)c(N3CCNCC3)nc21 [ENOXACIN]	0.13 (≈ 0.406 µM)	0.5 (≈ 1.56 µM)	0.5 (≈ 1.56 µM)	0.25 (≈ 0.78 µM)	0.13 (≈ 0.406 µM)	0.5 (≈ 1.56 µM)	
CC(C)(C)n1cc(C(=O)O)c(=O)c2cc(F)c(N3CCNCC3)cc21	0.25 (≈ 0.72 µM)	0.13 (≈ 0.374 µM)	0.5 (≈ 1.44 µM)	0.06 (≈ 0.173 µM)	0.06 (≈ 0.173 µM)	0.13 (≈ 0.374 µM)	LD50 [13]: > 2500 mg/kg; half-life [14]: 4.4 h; ED50 (Pseudomonas aeruginosa [4]): 18 mg/kg; dose excreted at 24 h [6]: 17%; Cmax [9]: 6400 ng/mL; AUC (Canis familiaris): 50 µg/mL; ED50 (Staphylococcus aureus [10]): 8 mg/kg
CC1CCC1n1cc(C(=O)O)c(=O)c2cc(F)c(N3CCNCC3)cc21 (stereo unspecified)	16 (≈ 44.5 µM)	4 (≈ 11.1 µM)	32 (≈ 89 µM)	4 (≈ 11.1 µM)	2 (≈ 5.56 µM)	32 (≈ 89 µM)	
CC1(n2cc(C(=O)O)c(=O)c3cc(F)c(N4CCNCC4)cc32)CCC1	0.5 (≈ 1.39 µM)	2 (≈ 5.56 µM)	8 (≈ 22.3 µM)	0.5 (≈ 1.39 µM)	0.25 (≈ 0.696 µM)	1 (≈ 2.78 µM)	
CCn1cc(C(=O)O)c(=O)c2cc(F)c(N3CCNCC3)cc21 [NORFLOXACIN]	0.015 (≈ 0.047 µM)	0.03 (≈ 0.0939 µM)	0.5 (≈ 1.57 µM)	0.25 (≈ 0.783 µM)	0.13 (≈ 0.407 µM)	0.06 (≈ 0.188 µM)	ED50 (Escherichia coli [1]): 3 mg/kg; LD50 [13]: > 2500 mg/kg; ED50 (Pseudomonas aeruginosa [4]): 16 mg/kg; ED50 (Klebsiella pneumoniae [5]): 8 mg/kg; ED50 (Staphylococcus aureus [10]): 10 mg/kg
C=C(C)n1cc(C(=O)O)c(=O)c2cc(F)c(N3CCNCC3)cc21	0.13 (≈ 0.392 µM)	0.25 (≈ 0.754 µM)	0.5 (≈ 1.51 µM)	0.5 (≈ 1.51 µM)	0.13 (≈ 0.392 µM)	0.06 (≈ 0.181 µM)	
O=C(O)c1cn(Cc2ccccc2)c2cc(N3CCNCC3)c(F)cc2c1=O	4 (≈ 10.5 µM)	0.5 (≈ 1.31 µM)	0.5 (≈ 1.31 µM)	0.5 (≈ 1.31 µM)	0.25 (≈ 0.655 µM)	0.5 (≈ 1.31 µM)	
O=C(O)c1cn(C2CC2)c2c(F)c(N3CCNCC3)c(F)cc2c1=O	0.008 (≈ 0.0229 µM)	0.06 (≈ 0.172 µM)	0.25 (≈ 0.716 µM)	0.13 (≈ 0.372 µM)	0.03 (≈ 0.0859 µM)	0.06 (≈ 0.172 µM)	
O=C(O)c1cn(C23CC4CC(CC(C4)C2)C3)c2cc(N3CCNCC3)c(F)cc2c1=O	32 (≈ 75.2 µM)	8 (≈ 18.8 µM)	63 (≈ 148 µM)	8 (≈ 18.8 µM)	2 (≈ 4.7 µM)	4 (≈ 9.4 µM)	
C=C(C)n1cc(C(=O)O)c(=O)c2cc(F)c(N3CCNCC3)nc21	0.5 (≈ 1.5 µM)	0.13 (≈ 0.391 µM)	2 (≈ 6.02 µM)	0.5 (≈ 1.5 µM)	0.13 (≈ 0.391 µM)	0.25 (≈ 0.752 µM)	ED50 (Pseudomonas aeruginosa [4]): 20 mg/kg; ED50 (Staphylococcus aureus [10]): 15 mg/kg
CC(c1ccccc1)n1cc(C(=O)O)c(=O)c2cc(F)c(N3CCNCC3)cc21 (stereo unspecified)	16 (≈ 40.5 µM)	4 (≈ 10.1 µM)	32 (≈ 80.9 µM)	4 (≈ 10.1 µM)	2 (≈ 5.06 µM)	4 (≈ 10.1 µM)	
O=C(O)c1cn(-c2ccc(F)cc2)c2cc(N3CCNCC3)c(F)cc2c1=O [SARAFLOXACIN]		0.02 (≈ 0.0519 µM)	0.39 (≈ 1.01 µM)	0.2 (≈ 0.519 µM)	0.05 (≈ 0.13 µM)		
CC(C)n1cc(C(=O)O)c(=O)c2cc(F)c(N3CCNCC3)nc21	1 (≈ 2.99 µM)	1 (≈ 2.99 µM)	4 (≈ 12 µM)	2 (≈ 5.98 µM)	0.25 (≈ 0.748 µM)	0.5 (≈ 1.5 µM)	
CC1(n2cc(C(=O)O)c(=O)c3cc(F)c(N4CCNCC4)cc32)CC1	0.25 (≈ 0.724 µM)	0.25 (≈ 0.724 µM)	0.5 (≈ 1.45 µM)	0.25 (≈ 0.724 µM)	0.06 (≈ 0.174 µM)	0.5 (≈ 1.45 µM)	
